Laboratory results as given in publication PMC5218480 (PLoS ONE, 2017).

Test system: MV-4-11 cells
Assay: Gene expression microarray analysis (Affymetrix PrimeView) and GSEA
Format: cell-based, human
Set-up: RFU PODN (11730768_x_at) / Fold change /veh PODN (11730768_x_at) / RFU LINC00158 (11744669_a_at) / Fold change /veh LINC00158 (11744669_a_at) / RFU DUSP10 (11751237_a_at) / Fold change /veh DUSP10 (11751237_a_at) / RFU ID3 (11757404_x_at) / Fold change /veh ID3 (11757404_x_at) / RFU PLEKHG5 (11737974_s_at) / Fold change /veh PLEKHG5 (11737974_s_at) / RFU LRRC4B (11730491_at) / Fold change /veh LRRC4B (11730491_at) / RFU GIMAP4 (11747438_a_at) / Fold change /veh GIMAP4 (11747438_a_at) / RFU KRT8 (11758183_x_at) / Fold change /veh KRT8 (11758183_x_at) / RFU CNN1 (11734310_a_at) / Fold change /veh CNN1 (11734310_a_at) / RFU VPS37D (11726825_at) / Fold change /veh VPS37D (11726825_at) / RFU C10orf10 (11716522_x_at) / Fold change /veh C10orf10 (11716522_x_at) / RFU KIR2DL2 /// KIR2DL4 /// KIR2DL5A /// KIR2DL5B /// KIR2DS1 /// KIR2DS2 /// KIR2DS3 /// KIR2DS4 /// KIR3DL3 /// KIR3DL3 /// KIR3DS1 (11738374_at) / Fold change /veh KIR2DL2 /// KIR2DL4 /// KIR2DL5A /// KIR2DL5B /// KIR2DS1 /// KIR2DS2 /// KIR2DS3 /// KIR2DS4 /// KIR3DL3 /// KIR3DL3 /// KIR3DS1 (11738374_at) / RFU C1QL1 (11718748_at) / Fold change /veh C1QL1 (11718748_at) / RFU TMPRSS4 (11747572_a_at) / Fold change /veh TMPRSS4 (11747572_a_at) / RFU HAMP (11756126_x_at) / Fold change /veh HAMP (11756126_x_at) / RFU RNFT2 (11725882_a_at) / Fold change /veh RNFT2 (11725882_a_at) / RFU NR4A2 (11747474_a_at) / Fold change /veh NR4A2 (11747474_a_at) / RFU ABCC12 (11746883_a_at) / Fold change /veh ABCC12 (11746883_a_at) / RFU TMEM136 (11760407_x_at) / Fold change /veh TMEM136 (11760407_x_at) / RFU CLDN22 /// WWC2 (11732394_at) / Fold change /veh CLDN22 /// WWC2 (11732394_at) / RFU HLA-DPB1 (11760878_x_at) / Fold change /veh HLA-DPB1 (11760878_x_at) / RFU SPINT1 (11716480_a_at) / Fold change /veh SPINT1 (11716480_a_at) / RFU GAP43 (11754022_s_at) / Fold change /veh GAP43 (11754022_s_at) / RFU A4GNT (11735810_at) / Fold change /veh A4GNT (11735810_at) / RFU PRB3 (11715151_x_at) / Fold change /veh PRB3 (11715151_x_at) / RFU TUBB4B (11761932_at) / Fold change /veh TUBB4B (11761932_at) / RFU CAPN14 (11732068_a_at) / Fold change /veh CAPN14 (11732068_a_at) / RFU TMCC2 (11721928_a_at) / Fold change /veh TMCC2 (11721928_a_at) / RFU IRGQ (11745062_a_at) / Fold change /veh IRGQ (11745062_a_at) / RFU FAM174B (11720279_a_at) / Fold change /veh FAM174B (11720279_a_at) / RFU TMPRSS4 (11748680_a_at) / Fold change /veh TMPRSS4 (11748680_a_at) / RFU FAM212B (11763350_a_at) / Fold change /veh FAM212B (11763350_a_at) / RFU PLEKHG5 (11743358_a_at) / Fold change /veh PLEKHG5 (11743358_a_at) / RFU ZSCAN30 (11745921_a_at) / Fold change /veh ZSCAN30 (11745921_a_at) / RFU CMKLR1 (11741424_a_at) / Fold change /veh CMKLR1 (11741424_a_at) / RFU LOC101060620 /// MAPK8IP1 (11723275_at) / Fold change /veh LOC101060620 /// MAPK8IP1 (11723275_at) / RFU SPTSSB (11747773_x_at) / Fold change /veh SPTSSB (11747773_x_at) / RFU PRSS12 (11739890_at) / Fold change /veh PRSS12 (11739890_at) / RFU BIN1 (11741810_x_at) / Fold change /veh BIN1 (11741810_x_at) / RFU WNT11 (11732464_a_at) / Fold change /veh WNT11 (11732464_a_at) / RFU C10orf10 (11716521_a_at) / Fold change /veh C10orf10 (11716521_a_at) / RFU C5orf56 (11738089_at) / Fold change /veh C5orf56 (11738089_at) / RFU CYB561 (11721691_x_at) / Fold change /veh CYB561 (11721691_x_at) / RFU ANKRD19P (11752326_a_at) / Fold change /veh ANKRD19P (11752326_a_at) / RFU OR2T12 /// OR2T33 /// OR2T8 (11738714_s_at) / Fold change /veh OR2T12 /// OR2T33 /// OR2T8 (11738714_s_at) / RFU VCAN (11748164_a_at) / Fold change /veh VCAN (11748164_a_at) / RFU JSRP1 (11732532_at) / Fold change /veh JSRP1 (11732532_at) / RFU KRTAP10-11 (11738290_x_at) / Fold change /veh KRTAP10-11 (11738290_x_at) / RFU MYO3A (11730013_a_at) / Fold change /veh MYO3A (11730013_a_at) / RFU EBF3 (11725865_a_at) / Fold change /veh EBF3 (11725865_a_at) / RFU CAMK2N1 (11719241_x_at) / Fold change /veh CAMK2N1 (11719241_x_at) / RFU C5orf56 (11738088_a_at) / Fold change /veh C5orf56 (11738088_a_at) / RFU OLFML3 (11715873_a_at) / Fold change /veh OLFML3 (11715873_a_at) / RFU LOC100653217 /// NTM (11731650_a_at) / Fold change /veh LOC100653217 /// NTM (11731650_a_at) / RFU MAPK11 (11762145_a_at) / Fold change /veh MAPK11 (11762145_a_at) / RFU FIZ1 (11724087_x_at) / Fold change /veh FIZ1 (11724087_x_at) / RFU OASL (11726364_x_at) / Fold change /veh OASL (11726364_x_at) / RFU SOX15 (11748057_x_at) / Fold change /veh SOX15 (11748057_x_at) / RFU CD79A (11719716_a_at) / Fold change /veh CD79A (11719716_a_at) / RFU HIST1H1D (11736915_at) / Fold change /veh HIST1H1D (11736915_at) / RFU CASKIN2 (11723855_a_at) / Fold change /veh CASKIN2 (11723855_a_at) / RFU LOC730098 (11760151_x_at) / Fold change /veh LOC730098 (11760151_x_at) / RFU OR4N2 (11742367_at) / Fold change /veh OR4N2 (11742367_at) / RFU PRRT2 (11749266_a_at) / Fold change /veh PRRT2 (11749266_a_at) / RFU SNX32 (11753110_a_at) / Fold change /veh SNX32 (11753110_a_at) / RFU CDHR5 (11726645_a_at) / Fold change /veh CDHR5 (11726645_a_at) / RFU RCAN1 (11760418_a_at) / Fold change /veh RCAN1 (11760418_a_at) / RFU FAM167A (11723789_a_at) / Fold change /veh FAM167A (11723789_a_at) / RFU FAM26E (11764081_at) / Fold change /veh FAM26E (11764081_at) / RFU ISYNA1 (11749810_s_at) / Fold change /veh ISYNA1 (11749810_s_at) / RFU ACY1 (11761880_at) / Fold change /veh ACY1 (11761880_at) / RFU 11764098_at / Fold change /veh 11764098_at / RFU SAMD14 (11745864_x_at) / Fold change /veh SAMD14 (11745864_x_at) / RFU NPB (11741838_a_at) / Fold change /veh NPB (11741838_a_at) / RFU TMPRSS6 (11731388_a_at) / Fold change /veh TMPRSS6 (11731388_a_at) / RFU KRTAP10-2 (11738614_at) / Fold change /veh KRTAP10-2 (11738614_at) / RFU ARHGAP8 /// PRR5-ARHGAP8 (11727945_x_at) / Fold change /veh ARHGAP8 /// PRR5-ARHGAP8 (11727945_x_at) / RFU KRTAP5-7 /// NADSYN1 (11734609_at) / Fold change /veh KRTAP5-7 /// NADSYN1 (11734609_at) / RFU RASL12 (11751679_a_at) / Fold change /veh RASL12 (11751679_a_at) / RFU CDKN2B (11736163_a_at) / Fold change /veh CDKN2B (11736163_a_at) / RFU PRF1 (11729649_at) / Fold change /veh PRF1 (11729649_at) / RFU, ZNF638 /// ZNF638-IT1 / Fold change vs veh, ZNF638 /// ZNF638-IT1 / RFU, PANK3 / Fold change vs veh, PANK3 / RFU, SH3YL1 / Fold change vs veh, SH3YL1 / RFU, ZEB2 / Fold change vs veh, ZEB2 / RFU, NRIP1 / Fold change vs veh, NRIP1 / RFU, PTTG1IP / Fold change vs veh, PTTG1IP / RFU, CAPN2 / Fold change vs veh, CAPN2 / RFU, MED14 / Fold change vs veh, MED14 / RFU, SNORA58 / Fold change vs veh, SNORA58 / RFU, C1orf63 / Fold change vs veh, C1orf63 / RFU, LRRFIP1 / Fold change vs veh, LRRFIP1 / RFU, NDUFAF7 / Fold change vs veh, NDUFAF7 / RFU, SLC12A2 / Fold change vs veh, SLC12A2 / RFU, IBTK / Fold change vs veh, IBTK / RFU, ESF1 / Fold change vs veh, ESF1 / Fold change vs veh, TMEM50B / RFU, TAOK1 / Fold change vs veh, TAOK1 / RFU, ACBD3 / Fold change vs veh, ACBD3 / RFU, TMA16 / Fold change vs veh, TMA16 / RFU, RWDD3 / Fold change vs veh, RWDD3 / RFU, BCAT1 / Fold change vs veh, BCAT1 / RFU, EDEM3 / Fold change vs veh, EDEM3 / RFU, TMEM33 / Fold change vs veh, TMEM33 / RFU, WDR75 / Fold change vs veh, WDR75 / RFU, AHCTF1 / Fold change vs veh, AHCTF1 / RFU, TFRC / Fold change vs veh, TFRC / RFU, ZDHHC17 / Fold change vs veh, ZDHHC17 / RFU, NOM1 / Fold change vs veh, NOM1 / RFU, ARL8B / Fold change vs veh, ARL8B / RFU, ZBTB11 / Fold change vs veh, ZBTB11 / RFU, TAMM41 / Fold change vs veh, TAMM41 / RFU, KIAA1704 /// LOC100996395 / Fold change vs veh, KIAA1704 /// LOC100996395 / RFU, ING1 / Fold change vs veh, ING1 / RFU, TRMT61B / Fold change vs veh, TRMT61B / RFU, FUBP3 / Fold change vs veh, FUBP3 / RFU, TP53 / Fold change vs veh, TP53 / RFU, TNKS2 / Fold change vs veh, TNKS2 / RFU, ZFP14 / Fold change vs veh, ZFP14 / RFU, ACTR2 / Fold change vs veh, ACTR2 / RFU, PPP3R1 / Fold change vs veh, PPP3R1 / RFU, PIK3R1 / Fold change vs veh, PIK3R1 / RFU, HNRNPA1 / Fold change vs veh, HNRNPA1 / RFU, RNF170 / Fold change vs veh, RNF170 / RFU, ZNF28 / Fold change vs veh, ZNF28 / RFU, RNGTT / Fold change vs veh, RNGTT / RFU, OGT / Fold change vs veh, OGT / RFU, BRD1 / Fold change vs veh, BRD1 / RFU, MARS / Fold change vs veh, MARS / RFU, ZNF655 / Fold change vs veh, ZNF655 / RFU, FAHD1 / Fold change vs veh, FAHD1 / RFU, BDP1 / Fold change vs veh, BDP1 / RFU, LRRCC1 / Fold change vs veh, LRRCC1 / RFU, ARID1A / Fold change vs veh, ARID1A / RFU, ZNF146 / Fold change vs veh, ZNF146 / RFU, ZNF330 / Fold change vs veh, ZNF330 / RFU, GPN3 / Fold change vs veh, GPN3 / RFU, C9orf123 / Fold change vs veh, C9orf123 / RFU, N4BP2L2 / Fold change vs veh, N4BP2L2 / RFU, ARFIP1 / Fold change vs veh, ARFIP1 / RFU, FAM179B / Fold change vs veh, FAM179B / RFU, BCL10 / Fold change vs veh, BCL10 / RFU, UHRF1BP1L / Fold change vs veh, UHRF1BP1L / RFU, BET1 / Fold change vs veh, BET1 / RFU, CNOT2 / Fold change vs veh, CNOT2 / RFU, ZNF268 / Fold change vs veh, ZNF268 / Fold change vs veh, ZNF507 / RFU, DGCR2 / Fold change vs veh, DGCR2 / RFU, WDSUB1 / Fold change vs veh, WDSUB1 / Fold change vs veh, HSP90B1 /// MIR3652 / RFU, ADSS / Fold change vs veh, ADSS / RFU, GK / Fold change vs veh, GK / RFU, ZNF148 / Fold change vs veh, ZNF148 / RFU, TAF9 / Fold change vs veh, TAF9 / RFU, SLC1A5 / Fold change vs veh, SLC1A5 / RFU, SLMO2 / Fold change vs veh, SLMO2 / RFU, ABCC4 / Fold change vs veh, ABCC4 / RFU, LOC101060439 /// RAP1B / Fold change vs veh, LOC101060439 /// RAP1B / RFU, RFX7 / Fold change vs veh, RFX7 / RFU, GTPBP10 / Fold change vs veh, GTPBP10 / RFU, CNEP1R1 / Fold change vs veh, CNEP1R1 / RFU, BIVM-ERCC5 /// ERCC5 / Fold change vs veh, BIVM-ERCC5 /// ERCC5 / RFU, ILF3 / Fold change vs veh, ILF3 / RFU 11762660_at / Fold change /veh 11762660_at / RFU VCAN (11757783_s_at) / Fold change /veh VCAN (11757783_s_at) / RFU DDX43 (11728927_at) / Fold change /veh DDX43 (11728927_at) / RFU KRT8 (11758188_x_at) / Fold change /veh KRT8 (11758188_x_at) / RFU NKD1 (11759106_at) / Fold change /veh NKD1 (11759106_at) / RFU SRD5A1 (11742802_a_at) / Fold change /veh SRD5A1 (11742802_a_at) / RFU TPSAB1 /// TPSB2 (11721975_s_at) / Fold change /veh TPSAB1 /// TPSB2 (11721975_s_at) / RFU GSTM3 (11746129_a_at) / Fold change /veh GSTM3 (11746129_a_at) / RFU IL23R (11737362_x_at) / Fold change /veh IL23R (11737362_x_at) / RFU TMEM51 (11727254_a_at) / Fold change /veh TMEM51 (11727254_a_at) / RFU PIWIL2 (11732686_x_at) / Fold change /veh PIWIL2 (11732686_x_at) / RFU ORM1 (11744905_x_at) / Fold change /veh ORM1 (11744905_x_at) / RFU CCDC152 (11743942_at) / Fold change /veh CCDC152 (11743942_at) / RFU ECM1 (11717891_a_at) / Fold change /veh ECM1 (11717891_a_at) / RFU IL23R (11748794_a_at) / Fold change /veh IL23R (11748794_a_at) / RFU TNFAIP8L3 (11732012_x_at) / Fold change /veh TNFAIP8L3 (11732012_x_at) / RFU MBOAT4 (11741988_at) / Fold change /veh MBOAT4 (11741988_at) / RFU 11764193_at / Fold change /veh 11764193_at / RFU TMEM53 (11763286_at) / Fold change /veh TMEM53 (11763286_at) / RFU MAGEB2 (11727129_at) / Fold change /veh MAGEB2 (11727129_at) / RFU TMEM200A (11744735_a_at) / Fold change /veh TMEM200A (11744735_a_at) / RFU CCDC152 (11751479_a_at) / Fold change /veh CCDC152 (11751479_a_at) / RFU FAM211A (11726209_a_at) / Fold change /veh FAM211A (11726209_a_at) / RFU RGS16 (11746705_a_at) / Fold change /veh RGS16 (11746705_a_at) / RFU VCAN (11755009_s_at) / Fold change /veh VCAN (11755009_s_at) / RFU RHOB (11743442_s_at) / Fold change /veh RHOB (11743442_s_at) / RFU RGS16 (11720943_a_at) / Fold change /veh RGS16 (11720943_a_at) / RFU RGS16 (11720944_at) / Fold change /veh RGS16 (11720944_at) / RFU, VPS4B / Fold change vs veh, VPS4B / RFU, CREB1 / Fold change vs veh, CREB1 / RFU, DNAJC13 / Fold change vs veh, DNAJC13 / RFU, GNAQ / Fold change vs veh, GNAQ / RFU, CDK5R1 / Fold change vs veh, CDK5R1 / RFU, ZRANB3 / Fold change vs veh, ZRANB3 / RFU, CUL4A / Fold change vs veh, CUL4A / RFU, CCNY / Fold change vs veh, CCNY / RFU, UFL1 / Fold change vs veh, UFL1 / RFU, COG3 / Fold change vs veh, COG3 / RFU, DIAPH2 / Fold change vs veh, DIAPH2 / RFU, SKA2 / Fold change vs veh, SKA2 / RFU, AFF3 / Fold change vs veh, AFF3 / RFU, LMF1 / Fold change vs veh, LMF1 / RFU, IPO11 / Fold change vs veh, IPO11 / RFU, DFFB / Fold change vs veh, DFFB / RFU, FOXP1 / Fold change vs veh, FOXP1 / RFU, CARD8 / Fold change vs veh, CARD8 / RFU, STRN3 / Fold change vs veh, STRN3 / RFU, ADK / Fold change vs veh, ADK / RFU, RASSF2 / Fold change vs veh, RASSF2 / RFU, WIPF1 / Fold change vs veh, WIPF1 / RFU, LARP1B / Fold change vs veh, LARP1B / RFU, RASA1 / Fold change vs veh, RASA1 / RFU, RB1 / Fold change vs veh, RB1 / RFU, PPFIA1 / Fold change vs veh, PPFIA1 / RFU, MAT2A / Fold change vs veh, MAT2A / RFU, CCT5 / Fold change vs veh, CCT5 / RFU, WDR92 / Fold change vs veh, WDR92 / RFU, CUX1 / Fold change vs veh, CUX1 / RFU, TTC7A / Fold change vs veh, TTC7A / RFU, TMEM135 / Fold change vs veh, TMEM135 / RFU, DEPTOR / Fold change vs veh, DEPTOR / RFU, CPM / Fold change vs veh, CPM / RFU, DNAJB6 / Fold change vs veh, DNAJB6 / RFU, CACNA2D3 / Fold change vs veh, CACNA2D3 / RFU, DTX4 / Fold change vs veh, DTX4 / RFU, TFCP2 / Fold change vs veh, TFCP2 / RFU, GMCL1 /// GMCL1P1 / Fold change vs veh, GMCL1 /// GMCL1P1 / RFU, AEBP2 / Fold change vs veh, AEBP2 / RFU, SNHG1 /// SNORD22 /// SNORD25 /// SNORD26 /// SNORD27 /// SNORD28 /// SNORD29 /// SNORD31 / Fold change vs veh, SNHG1 /// SNORD22 /// SNORD25 /// SNORD26 /// SNORD27 /// SNORD28 /// SNORD29 /// SNORD31 / Fold change (Aza/veh), C12orf56 (ProbeSet 11735607_a_at) / Fold change (ACY-1035/veh), C12orf56 (ProbeSet 11735607_a_at) / Fold change (Aza/veh), FGFR1OP (ProbeSet 11751329_s_at) / Fold change (ACY-1035/veh), FGFR1OP (ProbeSet 11751329_s_at) / Fold change (Aza/veh), VPS36 (ProbeSet 11739960_a_at) / Fold change (ACY-1035/veh), VPS36 (ProbeSet 11739960_a_at) / RFU SYPL1 (11715823_x_at) / Fold change /veh SYPL1 (11715823_x_at) / RFU IGFBP7 (11715501_s_at) / Fold change /veh IGFBP7 (11715501_s_at) / RFU REEP3 (11722064_at) / Fold change /veh REEP3 (11722064_at) / RFU IGLL1 (11728026_x_at) / Fold change /veh IGLL1 (11728026_x_at): dose or concentration left out as unconfirmed
Conditions: ProbeSet 11747888_a_at; LIST D

Nc1ccc(-c2cccs2)cc1NC(=O)c1ccc2c(c1)cc(C1CC1)n2CCN1CCOCC1 [ACY-1035]
Fold change vs veh, SH3YL1: 0.93
